Paper PMC11995724, “Antibiotic target discovery by integrated phenotypic and activity-based profiling of electrophilic fragments” (Cell chemical biology, 2025)
Where a name gives a salt, the structure may show the parent alone.

Assay: in vitro
Conditions: human, hek293t cells

Row | Compound | viability at 48 h, 25 µM [%]
1 | Cc1nn(CC(F)(F)F)c(C)c1C1COCCN1C(=O)CCl (stereo not drawn) [5-J13, 2-chloro-1-{3-[3,5-dimethyl-1-(2,2,2-trifluoroethyl)-1H-pyrazol-4-yl]morpholin-4-yl}ethan-1-one] | 2.86
2 | O=C(CCl)Nc1cccc(CN2CCSCC2)c1 [5-J14, 2-chloro-N-{3-[(thiomorpholin-4-yl)methyl]phenyl}acetamide hydrochloride] | 1.12
3 | Cc1ncc(CNC(=O)C(C)Cl)n1C (stereo not drawn) [5-J15, 2-chloro-N-[(1,2-dimethyl-1H-imidazol-5-yl)methyl]propanamide] | 106
4 | CCN(Cc1cccc(C)c1)C(=O)CCl [5-J16, 2-chloro-N-ethyl-N-[(3-methylphenyl)methyl]acetamide] | 1.39
5 | CC(Cl)C(=O)NC(C)(C(N)=O)c1cccc(Cl)c1 (stereo not drawn) [5-J17, 2-(3-chlorophenyl)-2-(2-chloropropanamido)propanamide] | 125
6 | COc1ccc(CNC(=O)C(C)Cl)cc1 (stereo not drawn) [5-J18, 2-chloro-N-[(4-methoxyphenyl)methyl]propanamide] | 98.5
7 | CC(Cl)C(=O)N1CC=C(C(F)(F)F)CC1 (stereo not drawn) [5-J19, 2-chloro-1-[4-(trifluoromethyl)-1,2,3,6-tetrahydropyridin-1-yl]propan-1-one] | 118
8 | CC(C)N(Cc1ccccc1)C(=O)CCl [5-J20, N-benzyl-2-chloro-N-(propan-2-yl)acetamide] | 1.21
9 | CC1CC(NC(=O)C(C)Cl)=NO1 (stereo not drawn) [5-J21, 2-chloro-N-(5-methyl-4,5-dihydro-1,2-oxazol-3-yl)propanamide] | 97.1
10 | O=C(CCl)NC(=O)c1ccc(OC(F)F)cc1 [5-J22, N-(2-chloroacetyl)-4-(difluoromethoxy)benzamide] | 108
11 | Cc1ccc(Cc2cnc(NC(=O)CCl)s2)cc1 [5-K03, 2-chloro-N-{5-[(4-methylphenyl)methyl]-1,3-thiazol-2-yl}acetamide] | -0.392
12 | CCC(=O)Nc1cccc(NC(=O)CCl)c1C [5-K04, N-[3-(2-chloroacetamido)-2-methylphenyl]propanamide] | 2.12
13 | CC(Cl)C(=O)Nc1nc2ccccc2s1 (stereo not drawn) [5-K05, N-(1,3-benzothiazol-2-yl)-2-chloropropanamide] | 59.9
14 | CCn1ccc(CN(C)C(=O)CCl)n1 [5-K06, 2-chloro-N-[(1-ethyl-1H-pyrazol-3-yl)methyl]-N-methylacetamide] | 1.77
15 | N#Cc1ccc(OC2CN(C(=O)CCl)C2)cc1 [5-K07, 4-{[1-(2-chloroacetyl)azetidin-3-yl]oxy}benzonitrile] | 0.233
16 | CN(Cc1ccccc1)S(=O)(=O)c1ccc(NC(=O)CCl)cc1 [5-K08, N-{4-[benzyl(methyl)sulfamoyl]phenyl}-2-chloroacetamide] | 16.1
17 | O=C(CCl)N1c2ccc(F)cc2NC(=O)C12CCC2 [5-K09, 1'-(2-chloroacetyl)-6'-fluoro-3',4'-dihydro-1'H-spiro[cyclobutane-1,2'-quinoxalin]-3'-one] | 0.346
18 | O=C(CCl)N1CCC1c1cccc(F)c1 (stereo not drawn) [5-K10, 2-chloro-1-[2-(3-fluorophenyl)azetidin-1-yl]ethan-1-one] | 28.5
19 | CN(C)C(=O)c1cc2n(n1)CC1(CCN(C(=O)CCl)CC1)OC2 [5-K11, 1-(2-chloroacetyl)-N,N-dimethyl-4',7'-dihydrospiro[piperidine-4,6'-pyrazolo[3,2-c][1,4]oxazine]-2'-carboxamide] | 0.714
20 | CC(O)CN(Cc1ccc(Cl)c(F)c1)C(=O)CCl (stereo not drawn) [5-K12, 2-chloro-N-[(4-chloro-3-fluorophenyl)methyl]-N-(2-hydroxypropyl)acetamide] | 0.478
21 | Cc1ccc(N(C(=O)CCl)C2C=CS(=O)(=O)C2)cc1 (stereo not drawn) [5-K13, 2-chloro-N-(1,1-dioxo-2,3-dihydro-1lambda6-thiophen-3-yl)-N-(4-methylphenyl)acetamide] | 0.562
22 | CC(NC(=O)CCl)C(=O)N1CCS(=O)(=O)CC1 (stereo not drawn) [5-K14, 2-chloro-N-[1-(1,1-dioxo-1lambda6-thiomorpholin-4-yl)-1-oxopropan-2-yl]acetamide] | 86.7
23 | Cc1cc(C)c(NC(=O)C(C)Cl)c(C)c1 (stereo not drawn) [5-K15, 2-chloro-N-(2,4,6-trimethylphenyl)propanamide] | 140
24 | NS(=O)(=O)c1cccc2cc(NC(=O)CCl)ccc12 [5-K16, 2-chloro-N-(5-sulfamoylnaphthalen-2-yl)acetamide] | 1.61
25 | Cc1nc(-c2cccc(NC(=O)CCl)c2)cs1 [5-K17, 2-chloro-N-[3-(2-methyl-1,3-thiazol-4-yl)phenyl]acetamide] | 13.2
26 | O=C(CCl)N1CCC(Cc2nc(-c3ccc(F)cn3)no2)CC1 [5-K18, 2-chloro-1-(4-{[3-(5-fluoropyridin-2-yl)-1,2,4-oxadiazol-5-yl]methyl}piperidin-1-yl)ethan-1-one] | 1.83
27 | CC(Cl)C(=O)N(Cc1ccccc1)Cc1ccccc1 (stereo not drawn) [5-K19, N,N-dibenzyl-2-chloropropanamide] | 82.1

Row | Compound | viability at 48 h, 25 µM [%]
28 | Cc1ccc(C)c(CN(CCO)C(=O)CCl)c1 [5-K20, 2-chloro-N-[(2,5-dimethylphenyl)methyl]-N-(2-hydroxyethyl)acetamide] | 2.44
29 | CC(Cl)C(=O)N1CCC(Cc2ccccc2)CC1 (stereo not drawn) [5-K21, 1-(4-benzylpiperidin-1-yl)-2-chloropropan-1-one] | 86.2
30 | O=C(CCl)Nc1ccc(S(=O)(=O)Nc2ccccc2)cc1 [5-K22, 2-chloro-N-[4-(phenylsulfamoyl)phenyl]acetamide] | 1.09
31 | O=C(CCl)N(Cc1ccccc1)Cc1cc2n(n1)CCCC2 [5-L03, N-benzyl-2-chloro-N-({4H,5H,6H,7H-pyrazolo[1,5-a]pyridin-2-yl}methyl)acetamide] | 0.904
32 | O=C(CCl)N1N=C(c2ccc(Cl)cc2)CC1c1ccco1 (stereo not drawn) [5-L04, 2-chloro-1-[3-(4-chlorophenyl)-5-(furan-2-yl)-4,5-dihydro-1H-pyrazol-1-yl]ethan-1-one] | -0.215
33 | C[C@H]1CN(C(=O)CCl)CCN1C(=O)c1cscn1 [5-L05, 2-chloro-1-[(3S)-3-methyl-4-(1,3-thiazole-4-carbonyl)piperazin-1-yl]ethan-1-one] | 2.69
34 | O=C(CCl)NCc1ccccc1CN1CCOCC1 [5-L06, 2-chloro-N-({2-[(morpholin-4-yl)methyl]phenyl}methyl)acetamide hydrochloride] | 1.46
35 | CCN(Cc1ccc2c(c1)OCO2)C(=O)CCl [5-L07, N-[(1,3-dioxaindan-5-yl)methyl]-2-chloro-N-ethylacetamide] | 0.477
36 | O=C(CCc1ccccc1)NC1CCN(C(=O)CCl)CC1 [5-L08, N-[1-(2-chloroacetyl)piperidin-4-yl]-3-phenylpropanamide] | 1.18
37 | O=C(CCl)NCCc1cccs1 [5-L09, 2-chloro-N-[2-(thiophen-2-yl)ethyl]acetamide] | 90.7
38 | CC(Cl)C(=O)Nc1ccccc1F (stereo not drawn) [5-L10, 2-chloro-N-(2-fluorophenyl)propanamide] | 99.2
39 | CC(NC(=O)CCl)c1cc(F)ccc1N(C)C (stereo not drawn) [5-L11, 2-chloro-N-{1-[2-(dimethylamino)-5-fluorophenyl]ethyl}acetamide] | 9.52
40 | CC(Cl)C(=O)Nc1cccc(S(=O)(=O)N2CCCCC2)c1 (stereo not drawn) [5-L12, 2-chloro-N-[3-(piperidine-1-sulfonyl)phenyl]propanamide] | 98.7
41 | Cc1nn(CC(C)C)c(Cl)c1C1CCCN1C(=O)CCl (stereo not drawn) [5-L13, 2-chloro-1-{2-[5-chloro-3-methyl-1-(2-methylpropyl)-1H-pyrazol-4-yl]pyrrolidin-1-yl}ethan-1-one] | 0.964
42 | O=C(CCl)NCc1ccc(C(=O)N2CCOCC2)cc1 [5-L14, 2-chloro-N-{[4-(morpholine-4-carbonyl)phenyl]methyl}acetamide] | 67.7
43 | CC(Cl)C(=O)NC(C)c1cnn(CC2CCC2)c1 (stereo not drawn) [5-L15, 2-chloro-N-{1-[1-(cyclobutylmethyl)-1H-pyrazol-4-yl]ethyl}propanamide] | 108
44 | O=C(CCl)NC(c1ccccc1)C1CC1 (stereo not drawn) [5-L16, 2-chloro-N-[cyclopropyl(phenyl)methyl]acetamide] | 116
45 | CC(Cl)C(=O)N(C)Cc1ccnn1C (stereo not drawn) [5-L17, 2-chloro-N-methyl-N-[(1-methyl-1H-pyrazol-5-yl)methyl]propanamide] | 134
46 | Cc1nc(C#N)c(N2CCN(C(=O)CCl)CC2)o1 [5-L18, 5-[4-(2-chloroacetyl)piperazin-1-yl]-2-methyl-1,3-oxazole-4-carbonitrile] | 1.74
47 | CC(Cl)C(=O)Nc1ccc2oc(=O)n(CCN(C)C)c2c1 (stereo not drawn) [5-L19, 2-chloro-N-{3-[2-(dimethylamino)ethyl]-2-oxo-2,3-dihydro-1,3-benzoxazol-5-yl}propanamide] | 109
48 | COc1ccccc1NC(=O)C(C)Cl (stereo not drawn) [5-L20, 2-chloro-N-(2-methoxyphenyl)propanamide] | 91.3
49 | CC(Cl)C(=O)NCc1conc1C1CCC1 (stereo not drawn) [5-L21, 2-chloro-N-[(3-cyclobutyl-1,2-oxazol-4-yl)methyl]propanamide] | 101
50 | CC(Cl)C(=O)Nc1ncc(C(F)(F)F)cc1Cl (stereo not drawn) [5-L22, 2-chloro-N-[3-chloro-5-(trifluoromethyl)pyridin-2-yl]propanamide] | 105
51 | CC(Cl)C(=O)NCCN1C(=O)CSC1=O (stereo not drawn) [5-M03, 2-chloro-N-[2-(2,4-dioxo-1,3-thiazolidin-3-yl)ethyl]propanamide] | 87.2
52 | CC(c1cnn(C)c1)N(C)C(=O)CCl (stereo not drawn) [5-M04, 2-chloro-N-methyl-N-[1-(1-methyl-1H-pyrazol-4-yl)ethyl]acetamide] | 1.55
53 | C=CCN(Cc1ccc(Cl)s1)C(=O)CCl [5-M05, 2-chloro-N-[(5-chlorothiophen-2-yl)methyl]-N-(prop-2-en-1-yl)acetamide] | 0.327
54 | CC(NC(=O)CCl)C(=O)N1CCCCC1C (stereo not drawn) [5-M06, 2-chloro-N-[1-(2-methylpiperidin-1-yl)-1-oxopropan-2-yl]acetamide] | 104
